Assay results: publication PMC6920042 (Nature chemical biology, 2019)

Legend:
[1] = system: Staphylococcus carnosus femB mutant; conditions: cited from earlier work
[2] = system: Staphylococcus carnosus; conditions: before femB mutation; cited from earlier work
[3] = NMR CSP residual binding of SH3b mutant domains to G5 ligand; conditions: 32 equivalents
[4] = NMR CSP residual binding of SH3b mutant domains to P4 ligand; conditions: 32 equivalents

lysostaphin: bacteriolytic enzyme produced and secreted by Staphylococcus simulans biovar staphylolyticus
increase in the MIC values associated with femB mutation ([1]; femB mutant vs parent): 3000 fold
MIC ([1]; femB mutant): 32 µg/mL
MIC [2]: 0.01 µg/mL

B1: N405A: His-tagged lysostaphin SH3b domain with N405A substitution, for NMR (protein)
chain: AKYGTLYKSESASFTPNTDIITRTTGPFRSMPQSGVLKAGQTIHYDEVMKQDGHVWVGYTGNSGQRIYLPVRTWNKS
modifications: left off: His-tag, N-terminal, kept
residual binding (ratio of chemical shift changes of mutant to WT, averaged over all amino acids) [3]: 16%

B2: R427M: His-tagged lysostaphin SH3b domain with R427M substitution, for NMR (protein)
chain: SESASFTPNTDIITMTTGPFRSMPQSGVLKAGQTIHYDEVMKQDGHVWVGYTGNSGQRIYLPVRTWNKS
modifications: left off: His-tag, N-terminal, kept
residual binding (ratio of chemical shift changes of mutant to WT, averaged over all amino acids) [4]: 1.6%

B3: W489L: His-tagged lysostaphin SH3b domain with W489L substitution, for NMR (protein)
chain: SESASFTPNTDIITRTTGPFRSMPQSGVLKAGQTIHYDEVMKQDGHVWVGYTGNSGQRIYLPVRTWNKSTNTLGVLL
modifications: left off: His-tag, N-terminal, kept
residual binding (ratio of chemical shift changes of mutant to WT, averaged over all amino acids) [4]: 6.6%
